Reference: PubChem BioAssay AID2060899 (Molecular Pharmacology Branch, DTP, NCI, 2025)
Several values for one entry are separate records, joined by “and”; a condition that tells them apart may be missing. Equal entries are not always repeated.

Tested on: 565726-208-R1-J5-PDC complex spheroids, growth inhibition
Test: Anticancer human tumor 565726-208-R1-J5-PDC patient-derived pancreatic adenocarcinoma cell line growth inhibition [RAS]
Conditions: for viability, T/C: stronger effect = lower value
Description: RAS pathway inhibitors in Combinations in Complex Spheroids
A high-throughput screen of multi-cell type tumor spheroids was designed to identify active combinations of RAS pathway inhibitors and targeted small molecules. Complex spheroids include a stromal component modeled by human endothelial cells (HUVEC) and fibroblasts modeled by human mesenchymal stem cells (MSCs). The concentration ranges selected for each drug and investigational agent were based upon clinically achievable concentrations if the clinical Cmax of the agent was known.
Compounds. The drugs and investigational agents: abemaciclib (NSC768073), cobimetinib (NSC768068), divarasib (GDC6063, NSC841802), docetaxel (NSC628503), GDC-1971 (RLY-1971, NSC841576), gemcitabine (NSC613327), inavolisib (NSC800729), ipatasertib (NSC767898), KB-0742 (NSC834161), MRTX-1133 (NSC836407), osimertinib (NSC779217), RMC-4630 (NSC839698), RMC-6236 (NSC851965), RMC-6291 (NSC852671), Ro-3306 (NSC812927), sapanisertib (NSC764658), SN-38 (NSC673596), staurosporine (NSC755774), SY5609 (NSC837396), and tovorafenib (DAY101, NSC766906), were obtained from the National Cancer Institute (NCI) Developmental Therapeutics Program Chemical Repository. The FDA-approved anticancer drug set is available from the NCI Developmental Therapeutics Program. […] The stock solutions were prepared in dimethyl sulfoxide (DMSO, Sigma-Aldrich, St. Louis, MO, cat. D2650) at 800-fold the tested concentration and stored at -70 degrees C prior to their use. All drugs and investigational agents were tested over a range starting from a high concentration at or near the clinical Cmax and decreasing in half-log increments. If the clinical Cmax for an agent had not been determined, the highest concentration tested was 10 microM.
Cell Culture. All cells were maintained in an incubator at 37 degrees C and 5% CO2 with 95% humidity. The PDC lines were cultured according to standard operating procedures established by the NCI PDMR. All PDCs were thawed and cultured in Matrigel-coated flasks prepared with a working solution of 1X Ham's F-12 nutrient mix, without supplementation (Invitrogen, Waltham, MA, cat. 11765054), 100 U/mL penicillin-streptomycin (Invitrogen, cat. 15140122), and 2.5% Matrigel (Corning Inc., Corning, NY, cat. 354248) for the first three passages. The 362531-283-R-J2-PDC and 782815-120-R-J1-PDC lines were cultured in 6C/Colon 1B media, which includes advanced DMEM/F-12 (Thermo Fisher Scientific, cat. 12634028), 10 mM HEPES (Thermo Fisher Scientific, cat. 15630080), 1X GlutaMAX supplement (Thermo Fisher Scientific, cat. 35050061), 0.1 mg/mL primocin (InvivoGen, San Diego, CA, cat. ant-pm-2), 10% defined fetal bovine serum, heat inactivated (HyClone Laboratories Inc., Logan, UT, cat. SH30070.03HI), 50% L-WRN conditioned media (ATCC, cat. CRL-3276), 1.25 mM N-Acetyl-L-cysteine (Sigma-Aldrich, cat. A9165), 10 mM nicotinamide (Sigma-Aldrich, cat. N0636), 1X B-27 supplement (Thermo Fisher Scientific, cat. 17504044), 1X N-2 supplement (Thermo Fisher Scientific, cat. 17502048), 50 ng/mL human EGF (Thermo Fisher Scientific, cat. PHG0311), and 10 microM Y-27632 dihydrochloride (Tocris Bioscience, cat. 1254). The K12877-001-R-J1-PDC line was cultured in 6I media, which includes all 6C/Colon 1B media plus 10 ng/mL human FGF-10 (PeproTech, cat. 100-26), 1 ng/mL human FGF-2 (PeproTech, cat. 100-18B), 1 µM prostaglandin E2 (Tocris Bioscience, cat. 2296), […] hydrocortisone (Sigma-Aldrich, cat. H4001), and […] bovine insulin (Sigma-Aldrich, cat. I6634). The K86415-001-R-J1-PDC line was cultured in 6D media, which includes all 6C/Colon 1B media components minus the L-WRN conditioned media. The 485176-168-R4-J1-PDC was cultured in PANC media, which includes all 6C/Colon 1B media plus 100 ng/mL human FGF-10 (PeproTech, cat. 100-26), 500 nM SB-431542 (Selleckchem, cat. S1067), and 10 nM gastrin (Tocris Bioscience, cat. 3006). […]

[1] = compound alone, run of 07/15/2024
[2] = compound alone, run of 07/09/2024
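Note: spheroids exposed to compounds for seven days before readout.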
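Throughout, for viability, T/C: 100% = DMSO vehicle control viability.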

Row | SMILES | viability, T/C (compound 0.0316 µM) | viability, T/C (compound 0.1 µM) | viability, T/C (compound 0.316 µM) | viability, T/C (compound 1 µM) | IC50 (curve of compound) | other results
1 | C#Cc1c(F)ccc2cc(O)cc(-c3ncc4c(N5CC6CCC(C5)N6)nc(OCC56CCCN5CC(F)C6)nc4c3F)c12 (stereo not given) | 104% [middle of 8 runs] | 101% [middle of 8 runs] | 94.6% [middle of 8 runs] | 84.3% [middle of 8 runs] | – | viability, T/C (compound 3.16 µM): 78.7% [middle of 8 runs]; IC50 [1]: > 10 µM
2 | C=CC(=O)N1CCN(c2nc(OCC3CCCN3C)nc3c(F)c(-c4nc(N)cc(C)c4C(F)(F)F)c(Cl)cc23)C(C)C1 (stereo not given) | – | 104% [middle of 12 runs] | – | – | > 1 µM | IC50 [1]: > 1 µM
3 | C=CC(=O)Nc1cc(Nc2nccc(-c3cn(C)c4ccccc34)n2)c(OC)cc1N(C)CCN(C)C | 92.9% [middle of 4 runs] | 85.7% [middle of 4 runs] | – | – | > 1 µM | –
4 | CC(=O)OC12COC1CC(O)C1(C)C(=O)C(O)C3=C(C)C(OC(=O)C(O)C(NC(=O)OC(C)(C)C)c4ccccc4)CC(O)(C(OC(=O)c4ccccc4)C21)C3(C)C (stereo not given) | 20.4% [middle of 4 runs] | 20.9% [middle of 4 runs] | 19.3% [middle of 4 runs] | 19.9% [middle of 4 runs] | < 0.0316 µM | viability, T/C (compound 3.16 µM): 24.2% [middle of 4 runs]; viability, T/C (compound 10 µM): 27% [middle of 4 runs]
5 | CC(C)NCC(C(=O)N1CCN(c2ncnc3c2C(C)CC3O)CC1)c1ccc(Cl)cc1 (stereo not given) | 97.9% [middle of 4 runs] | 100% [middle of 4 runs] | – | 88.7% [middle of 4 runs] | > 10 µM | –
6 | CC(C)n1nc(-c2ccc3oc(N)nc3c2)c2c(N)ncnc21 | 54.3% [middle of 4 runs] | – | – | – | – | viability, T/C (compound 0.00316 µM): 84% [middle of 4 runs]; viability, T/C (compound 0.01 µM): 66% [middle of 4 runs]
7 | CC(Nc1ccc2c(c1)OCCn1cc(N3C(=O)OCC3C(F)F)nc1-2)C(N)=O (stereo not given) | 94.9% [middle of 4 runs] | – | 79.3% [middle of 4 runs] | 72% [middle of 4 runs] | > 10 µM and 9.95 µM | –
8 | CC1(C)CCC(Nc2ncc(C(F)(F)F)c(-c3c[nH]c4c(P(C)(C)=O)c(C#N)ccc34)n2)CN1 (stereo not given) | – | – | – | – | 3.92 nM [middle of 4 runs] | viability, T/C (compound 0.003 µM): 51.3% [middle of 4 runs]; viability, T/C (compound 0.00949 µM): 37.9% [middle of 4 runs]; viability, T/C (compound 0.03 µM): 31.7% [middle of 4 runs]; viability, T/C (compound 0.0949 µM): 36.9% [middle of 4 runs]; viability, T/C (compound 0.3 µM): 34.4% [middle of 4 runs]
9 | CC1(O)CCCC1n1c(=O)c(C(F)F)cc2cnc(NC3CCN(S(C)(=O)=O)CC3)nc21 (stereo not given) | 86.8% [middle of 4 runs] | 71.2% [middle of 4 runs] | – | 71.2% [middle of 4 runs] | 4.5 µM [middle of 4 runs] | viability, T/C (compound 10 µM): 5.9% [middle of 4 runs]
10 | CCC(CC)c1cc(NC2CCC(N)C2)n2nccc2n1 (stereo not given) | – | – | 105% [middle of 4 runs] | 81.9% [middle of 4 runs] | 1.57 µM [middle of 4 runs] | viability, T/C (compound 3.16 µM): 1.5% [middle of 4 runs]; viability, T/C (compound 10 µM): 1.88% [middle of 4 runs]
11 | CCN1CCN(Cc2ccc(Nc3ncc(F)c(-c4cc(F)c5nc(C)n(C(C)C)c5c4)n3)nc2)CC1 | 81.5% [middle of 4 runs] | 77.8% [middle of 4 runs] | – | – | > 1 µM | viability, T/C (compound 0.00316 µM): 96.8% [middle of 4 runs]
12 | CCc1c2c(nc3ccc(O)cc13)-c1cc3c(c(=O)n1C2)COC(=O)[C@]3(O)CC | – | – | – | – | 2.78 nM [middle of 4 runs] | viability, T/C (compound 0.000949 µM): 77.2% [middle of 4 runs]; viability, T/C (compound 0.00949 µM): 34.4% [middle of 4 runs]; viability, T/C (compound 0.03 µM): 19.3% [middle of 4 runs]; viability, T/C (compound 0.0949 µM): 12.7% [middle of 4 runs]; viability, T/C (compound 0.3 µM): 7.31% [middle of 4 runs]
13 | CCn1c(-c2cc(N3CCN(C)CC3)cnc2C(C)OC)c2c3cc(ccc31)-c1csc(n1)CC(NC(=O)C1CC1C)C(=O)N1CCCC(N1)C(=O)OCC(C)(C)C2 (stereo not given) | – | – | – | – | – | viability, T/C (compound 0.000949 µM): 65% [middle of 8 runs]; viability, T/C (compound 0.003 µM): 55.2% [middle of 8 runs]; viability, T/C (compound 0.00949 µM): 43.7% [middle of 8 runs]; viability, T/C (compound 0.03 µM): 33.3% [middle of 7 runs]; viability, T/C (compound 0.0949 µM): 27.4% [middle of 7 runs]; viability, T/C (compound 0.3 µM): 24.9% [middle of 8 runs]; IC50 [2]: 4 nM [middle of 8 runs]
14 | CCn1c(-c2cccnc2C(C)OC)c2c3cc(ccc31)N1CCOC(CC(NC(=O)C(C(C)C)N(C)C(=O)C3(F)CCN(C(=O)C#CC(C)(C)N(C)C)CC3)C(=O)N3CCCC(N3)C(=O)OCC(C)(C)C2)C1 (stereo not given) | – | – | – | – | – | viability, T/C (compound 0.000949 µM): 102% [middle of 8 runs]; viability, T/C (compound 0.003 µM): 99.7% [middle of 8 runs]; viability, T/C (compound 0.00949 µM): 104% [middle of 8 runs]; viability, T/C (compound 0.03 µM): 103% [middle of 8 runs]; viability, T/C (compound 0.0949 µM): 103% [middle of 8 runs]; viability, T/C (compound 0.3 µM): 90% [middle of 8 runs]; IC50 [2]: > 0.3 µM
15 | C[C@@H](NC(=O)c1ncnc(N)c1Cl)c1ncc(C(=O)Nc2cc(C(F)(F)F)c(Cl)cn2)s1 | 116% [middle of 4 runs] | – | 101% [middle of 4 runs] | 100% (2×) and 109% and 117% | > 10 µM | viability, T/C (compound 3.16 µM): 106% [middle of 4 runs]
16 | Cc1nc(N2CCC3(CC2)COC(C)C3N)c(CO)nc1Sc1ccnc(N)c1Cl (stereo not given) | 106% [middle of 4 runs] | – | 85.7% [middle of 4 runs] | 81.1% [middle of 4 runs] | > 10 µM | –
17 | NC1c2ccccc2OC12CCN(c1cnc3c(N4CCCc5ncccc54)n[nH]c3n1)CC2 (stereo not given) | 82.2% [middle of 4 runs] | – | 72.5% [middle of 4 runs] | 66% [middle of 4 runs] | > 10 µM | –
18 | Nc1ccn(C2OC(CO)C(O)C2(F)F)c(=O)n1 (stereo not given) | 70.9% [middle of 4 runs] | 62.3% [middle of 4 runs] | – | 38.8% [middle of 4 runs] | – | viability, T/C (compound 0.00316 µM): 108% [middle of 4 runs]
19 | O=C(c1ccc(F)c(F)c1Nc1ccc(I)cc1F)N1CC(O)([C@@H]2CCCCN2)C1 | 69.5% [middle of 4 runs] | 62.4% [middle of 4 runs] | – | 33.5% [middle of 4 runs] | – | –
